Source: US20220380331A1, “TREATMENT OF CONDITIONS OF THE NERVOUS SYSTEM” (priority 2019, published 2022)

Assays:
PNNs in the spinal cord = assay: Short-term (10 days) PNNi administration, histology of PNN/ECM components in the CNS; assay type: in vivo, rat
Procedure: Animals were given an overdose of sodium pentobarbital (Pentoject; Henry Schein; 200 mg/kg; intraperitoneal injection) to deeply […] without halting cardiac function. A transcardial perfusion (Gage et al., 2012) was then performed using sodium phosphate buffer (PB; 0.12 M sodium phosphate monobasic; 0.1 M NaOH; pH 7.4) followed by 4% paraformaldehyde (PFA; in PB; pH 7.4) for tissue fixation. The brain and spinal cord were dissected out, post-fixed in PFA (4%; 4° C.) overnight and cryoprotected in 30% sucrose solution (30% v/w sucrose in PB; 4° C.) until tissue saturation. The left brain hemisphere and appropriate spinal cord segments were excised and frozen in optimum temperature medium (OCT; Leica FSC 22 Frozen Section Media; Leica Biosystems) before storage at -80° C. until sectioning. Sectioning of tissue was performed using a cryostat (Leica CM1850; Leica Biosystems) into 40 μm transverse sections for free-floating sections and collected into 48-well plates containing physiological buffer solution (PBS; 0.13 M sodium chloride, […], 0.003 M sodium phosphate monobasic; pH 7.4) to remove the OCT before being transferred to 30% sucrose solution for storage at 4° C. At room temperature (RT), sections were washed three times for 5 min each in Tris-buffered saline (TBS; 0.1 M tris base, 0.15 M NaCl; pH 7.4) to remove sucrose residue. Tissue was then blocked in 0.3% TBST (1×TBS solution and 0.3% v/v Triton X-100) and 3% normal donkey serum (NDS; v/v) for two hours. The sections were then transferred to co-incubate at 4° C. in blocking buffer (3% NDS in 0.3% TBST; pH 7.4) containing primary antibodies. Following primary antibody or lectin incubation, sections were then washed thrice using TBS (10 mins; RT). To visualise each primary antibody staining, the tissue was then co-incubated in darkness with the fluorescent-conjugated secondary antibodies (1:500; 2 hrs; RT) against the species of the primary antibodies. Tissues were then washed three times in TBS (10 mins; RT) whilst protected from light. A final wash in Tris non-saline (TNS; 0.5 M Tris, pH 7.6) was given to reduce precipitation before air-drying. Tissues were mounted on Superfrost Plus slides, air-dried and coverslipped with the mounting medium FluorSaveTM Reagent (EMD Millipore). Lectins: biotinylated Wisteria floribunda agglutinin (bio-WFA), biotinylated hyaluronan binding protein (bHABP). […] PNNi treatment was consequently investigated in vivo, with short-term administration (10 days) via either oral feeding or intraperitoneal (i.p.) injection twice daily. […] Quantification in the dorsal horn of the spinal cord illustrated that ten days of oral PNNi administration induced a partial removal of WFA-positive moieties to 71.0±7.20% of baseline ECM levels (t(3)=5.15, p=0.0142; FIG. 9P). […] As oral PNNi treatment is both non-invasive and generated sufficient effects on the neural ECM in vivo, the following PNNi dosing experiments with Lister Hooded rats used this method of administration.

[1] = system: perineuronal nets (PNNs) in the ventral horn; assay: Chronic PNNi treatment, immunohistochemistry of PNNs in the ventral horn 12 weeks post-injury; assay type: in vivo, rat; settings: T4-6 sections
Procedure: FIG. 15. Chronic PNNi treatment preferentially reduces expression of perineuronal nets (PNNs), labelled by key PNN components, in the ventral horn (VH). Rat spinal cord sections (T4-6) obtained at 12 weeks post-injury were stained and intensity was analysed in the VH. […] A transcardial perfusion (Gage et al., 2012) was then performed using sodium phosphate buffer (PB; 0.12 M sodium phosphate monobasic; 0.1 M NaOH; pH 7.4) followed by 4% paraformaldehyde (PFA; in PB; pH 7.4) for tissue fixation. The brain and spinal cord were dissected out, post-fixed in PFA (4%; 4° C.) overnight and cryoprotected in 30% sucrose solution (30% v/w sucrose in PB; 4° C.) until tissue saturation. The left brain hemisphere and appropriate spinal cord segments were excised and frozen in optimum temperature medium (OCT; Leica FSC 22 Frozen Section Media; Leica Biosystems) before storage at -80° C. until sectioning. […] Total number of neurones and the number of neurones surrounded by PNNs were quantified by two independent researchers, blinded to the study. Results were analysed with one-way ANOVA for statistical significance. […] Rat spinal cord sections (T4-6) obtained at 12 weeks post-injury were stained and intensity was analysed in the VH.

Cc1cc(=O)oc2cc(O)ccc12 [PNNi, 4-methylumbelliferone]
WFA-positive moieties, of baseline ECM levels (PNNs in the spinal cord; dorsal horn of the spinal cord, ten days oral): 71.0±7.20%
HAPLN-1 staining, of baseline levels (PNNs in the spinal cord; dorsal horn, short-term oral): 68.3±8.09%
staining with HA binding protein (HABP), of baseline levels (PNNs in the spinal cord; dorsal horn, short-term oral): 64.0±5.84%
PNNs (ACAN staining, HABP) after 10 days oral administration in intact rats (PNNs in the spinal cord; intact rats, 10 days oral): PNNs are reduced
WFA-positive binding throughout the CNS compared to non-treated animals (PNNs in the spinal cord; ten days dosing, oral feeding or i.p. injection twice daily): sufficient in decreasing WFA-positive binding
chondroitin sulphate and hyaluronan in the spinal cord (PNNs in the spinal cord; ten-day non-invasive oral administration): down-regulates both chondroitin sulphate and hyaluronan
number of PNNs labelled by ACAN and WFA in the ventral horn [1]: partially decreases number of PNNs
